Type in all cases: functional
Experiment [1] concerns Staphylococcus aureus. Briefly: Antibacterial activity against erythromycin-susceptible Staphylococcus aureus ATCC 25923.
The test system of experiment [2] is Streptococcus pneumoniae. Briefly: Antibacterial activity against erythromycin-susceptible Streptococcus pneumoniae ATCC 49619.
In experiment [3] the test system is Staphylococcus aureus. Briefly: Antibacterial activity against methicillin-susceptible Staphylococcus aureus ATCC 29213.
The subject of experiment [4] is Streptococcus pyogenes. Briefly: Antibacterial activity against erythromycin-susceptible Streptococcus pyogenes isolate S2.
The subject of experiment [5] is Streptococcus pyogenes. Briefly: Antibacterial activity against erythromycin-resistant Streptococcus pyogenes isolate R2.
The test system of experiment [6] is Streptococcus pneumoniae. Briefly: Antibacterial activity against erythromycin-resistant Streptococcus pneumoniae B1 expressing ermB gene.
For experiment [7], the system named is Streptococcus pneumoniae. Briefly: Antibacterial activity against erythromycin-resistant Streptococcus pneumoniae A22072 expressing mefA gene.
The subject of experiment [8] is Streptococcus pneumoniae. Briefly: Antibacterial activity against erythromycin-resistant Streptococcus pneumoniae AB11 expressing ermB/mefA gene.
Experiment [9] relates to Escherichia coli. Briefly: Antibacterial activity against Escherichia coli ATCC 25922.
Experiment [10] relates to Pseudomonas aeruginosa. Briefly: Antibacterial activity against Pseudomonas aeruginosa ATCC 27853.
For experiment [11], the system named is Streptococcus pneumoniae. Briefly: Potency index, ratio of azithromycin MIC to compound MIC for erythromycin-resistant Streptococcus pneumoniae B1 expressing ermB gene.
Experiment [12] concerns Streptococcus pneumoniae. Briefly: Potency index, ratio of azithromycin MIC to compound MIC for erythromycin-resistant Streptococcus pneumoniae A22072 expressing mefA gene.
Experiment [13] concerns Streptococcus pneumoniae. Briefly: Potency index, ratio of azithromycin MIC to compound MIC for erythromycin-resistant Streptococcus pneumoniae AB11 expressing ermB/mefA gene.
In experiment [14] the test system is Streptococcus pyogenes. Briefly: Potency index, ratio of azithromycin MIC to compound MIC for erythromycin-resistant Streptococcus pyogenes isolate R2.
The test system of experiment [15] is Streptococcus pyogenes. Briefly: Potency index, ratio of clarithromycin MIC to compound MIC for erythromycin-resistant Streptococcus pyogenes isolate R2.
The subject of experiment [16] is Streptococcus pneumoniae. Briefly: Potency index, ratio of clarithromycin MIC to compound MIC for erythromycin-resistant Streptococcus pneumoniae B1 expressing ermB gene.
In experiment [17] the test system is Streptococcus pneumoniae. Briefly: Potency index, ratio of clarithromycin MIC to compound MIC for erythromycin-resistant Streptococcus pneumoniae A22072 expressing mefA gene.
The test system of experiment [18] is Streptococcus pneumoniae. Briefly: Potency index, ratio of clarithromycin MIC to compound MIC for erythromycin-resistant Streptococcus pneumoniae AB11 expressing ermB/mefA gene.
The subject of experiment [19] is Staphylococcus aureus. Briefly: Potency index, ratio of azithromycin MIC to compound MIC for erythromycin-susceptible Staphylococcus aureus ATCC 25923.
Experiment [20] concerns Streptococcus pyogenes. Briefly: Potency index, ratio of azithromycin MIC to compound MIC for erythromycin-susceptible Streptococcus pyogenes isolate S2.

In brackets after ≈: the same amount, converted by molar mass.

`CC[C@H]1OC(=O)[C@H](C)[C@@H](O[C@H]2C[C@@](C)(OC)[C@@H](OC(=O)NCc3cn(Cc4ccc(Cl)cc4)nn3)[C@H](C)O2)[C@H](C)[C@@H](O[C@@H]2O[C@H](C)C[C@H](N(C)C)[C@H]2O)[C@](C)(O)C[C@@H](C)CN(C)[C@H](C)[C@@H](OC(=O)NCc2ccc(OC)cc2)[C@]1(C)O`: the minimum inhibitory concentration (MIC) in [1] is 0.008 µg/mL (≈ 0.00689 µM); in experiment [2], 0.125 µg/mL (≈ 0.108 µM); in experiment [3] it was 16 µg/mL (≈ 13.8 µM); in [4], less than 0.002 µg/mL; in experiment [5] it was 1 µg/mL (≈ 0.861 µM); in [6] it was 0.125 µg/mL (≈ 0.108 µM). The MIC in [7] came out at 0.06 µg/mL (≈ 0.0517 µM); in [8], 0.125 µg/mL (≈ 0.108 µM); in [9] it was 16 µg/mL (≈ 13.8 µM); in experiment [10], 8 µg/mL (≈ 6.89 µM). For the same compound, the Ratio was 1024 - 2133 in experiment [11]; 32 - 133 in experiment [12]; 1024 - 2048 in [13]; 128 in experiment [14]; 128 in [15]; 1024 - 2133 in experiment [16]. Also, the figures for the Ratio in [17], in [18] and in [19] were 32 - 133, 1024 - 2048 and 31, respectively.
`CC[C@H]1OC(=O)[C@H](C)[C@@H](O[C@H]2C[C@@](C)(OC)[C@@H](OC(=O)NCc3cn(Cc4ccc(Cl)cc4Cl)nn3)[C@H](C)O2)[C@H](C)[C@@H](O[C@@H]2O[C@H](C)C[C@H](N(C)C)[C@H]2O)[C@](C)(O)C[C@@H](C)CN(C)[C@H](C)[C@@H](O)[C@]1(C)O`: the MIC in experiment [1] stood at 1 µg/mL (≈ 0.969 µM); in [2], 0.25 µg/mL (≈ 0.242 µM); in experiment [3] it was 16 µg/mL (≈ 15.5 µM); in experiment [4] it was 0.016 µg/mL (≈ 0.0155 µM); in experiment [5] it was 64 µg/mL (≈ 62 µM); in [6] it was 0.5 µg/mL (≈ 0.484 µM). Besides, the minimum inhibitory concentration (MIC) in experiment [7] was determined as 0.25 µg/mL (≈ 0.242 µM); in [8], 0.25 µg/mL (≈ 0.242 µM); in experiment [9] it was 64 µg/mL (≈ 62 µM); in experiment [10], 32 µg/mL (≈ 31 µM). The Ratio in experiment [20] was found to be 12.5; in experiment [11], 256; in [12], 16; in experiment [13], 1024.
Take `CC[C@H]1OC(=O)[C@H](C)[C@@H](O[C@H]2C[C@@](C)(OC)[C@@H](OC(=O)NCc3cn(Cc4ccc(C)cc4)nn3)[C@H](C)O2)[C@H](C)[C@@H](O[C@@H]2O[C@H](C)C[C@H](N(C)C)[C@H]2O)[C@](C)(O)C[C@@H](C)CN(C)[C@H](C)[C@@H](OC(=O)NCc2ccc(OC)cc2)[C@]1(C)O`: the minimal inhibitory concentration (MIC) in experiment [1] is 0.06 µg/mL (≈ 0.0526 µM); in experiment [2], 0.125 µg/mL (≈ 0.11 µM); in [3] it was 32 µg/mL (≈ 28.1 µM); in experiment [4], less than 0.002 µg/mL; in [5] it was 8 µg/mL (≈ 7.01 µM); in [6] it was 0.125 µg/mL (≈ 0.11 µM). Also, the minimum inhibitory concentration (MIC) in experiment [7] turned out to be 0.03 µg/mL (≈ 0.0263 µM); in [8], 0.25 µg/mL (≈ 0.219 µM); in experiment [9], 16 µg/mL (≈ 14 µM); in [10] it was 64 µg/mL (≈ 56.1 µM). Also, the Ratio in experiment [11] is 1024 - 2133; in [12], 32 - 133; in [13], 1024 - 2048; in experiment [16], 1024 - 2133; in experiment [17] it was 32 - 133; in experiment [18] it was 1024 - 2048.

As a reminder, the MIC is the smallest concentration in the dilution series that meets the test's criterion for growth inhibition. Low readings indicate a more susceptible organism, high ones a less susceptible organism.

Values taken from ChEMBL document CHEMBL4052714, “Synthesis and antibacterial activity of novel 4″-O-(1-aralkyl-1,2,3-triazol-4-methyl-carbamoyl) azithromycin analogs” (2017).
